Entries after “also recorded” stand apart in the source; their conditions may differ.
Tested on: Raji lymphoma cells
Experiment: Ex vivo murine brain slice invasion assay
Assay type: cell-based
Settings: cells pretreated with 100 nM for four days; day 5 post-incubation; vs DMSO
Description: The impact of Agelastatin A on the brain invasiveness of Raji B lymphoma cells was assessed ex vivo using a modified murine brain slice invasion assay. Briefly, these cells were first pre-transfected with luciferase (SP-DiI; Molecular Probes) just prior to invasion assays. Slice cultures of whole brains were produced from C57 mice. Two-month-old male C57BL/6J mice were sacrificed by CO2 inhalation. Mice brains were removed, placed into sterile ice-cold PBS, and then coronally sectioned with a 1 mm coronal brain matrix into 1 mm slices at +2.00 to −1.00 bregma. Brain slices were placed aseptically onto transwell (8 μm pore size) membranes in six-well dishes. Culture media (DMEM, 10% FCS, […], 100 U/ml penicillin, 100 μg/ml streptomycin, and 2.5 μg/ml amphotericin B) was added into each well to a point just below that which would cover the brain slice. […] Cells were allowed to attach to the brain surface for one hour before the media was adjusted to just cover the surface of the slice. After 5 days incubation, the extent of lymphoma cell invasion into the brain slice was quantitated by bioluminesence imaging (BLI) in both slice and media. Brain slices were fixed in 4% paraformaldehyde for CD20 staining to identify Raji cells, which had invaded the brain slices. […]

SMILES: CN1C(=O)N[C@H]2[C@@H]3NC(=O)c4ccc(Br)n4[C@@H]3C[C@]21O [AA, agelastatin A, reference compound]
- brain invasiveness of Raji lymphoma cells (ex vivo brain slice): significantly decreased and disabled the brain invasiveness; also recorded: decreases the brain invasiveness of Raji lymphoma cells; also recorded: No AA-treated lymphoma cells were found in the brain slice
